Values quoted from earlier work in patent publication US12239660B2, “Therapeutic composition and methods” (Viscera Labs, Inc., priority 2018, dated 2025).

Settings: in vivo, po

- drug released in the small intestine: 12%
SMILES: O=C(O)c1cc(/N=N/c2ccc(S(=O)(=O)Nc3ccccn3)cc2)ccc1O [sulfasalazin]
